# Test system: WM266-4 (skin melanoma), HEK293 (kidney), and BJ (skin fibroblasts) cells
# Assay: Cell viability, CellTiter Glo assay after 72 h treatment
# Format: cell-based
# Method: Figure 6 Characterization of SR24717 for effects on cell viability and cytotoxicity. (A) Effect of SR24717 on viability of WM266-4 (skin melanoma), HEK293 (kidney), and BJ (skin fibroblasts) cells. CellTiter Glo™ assay (Promega) was used after 72 h treatment. (B) Effect of SR24717 on viability of HEK293 (kidney) and BJ (skin fibroblasts) cells. The CellTox Green™ assay (Promega) was used. All experiments performed as 10-point 3-fold concentration-response curves in triplicate.
# Test compounds were solubilized in 100% DMSO and added to polypropylene 384-well plates (Greiner cat# 781280). 1250 of BJ skin fibroblasts or primary melanocytes were plated in 384-well plates in 8 µL of serum-free media (HybriCare for BT474, EMEM for HEK293). […] Luminescence was recorded using a Biotek Synergy H1 multimode microplate reader. Viability was expressed as a percentage relative to wells containing media only (0%) and wells containing cells treated with DMSO only (100%). Three parameters were calculated on a per-plate basis: (a) the signal-to-background ratio (S/B), (b) the coefficient for variation (CV; CV = (standard deviation/mean) × 100) for all compound test wells, and (c) the Z’-factor. IC50 values were calculated by fitting normalized data to sigmoidal log vs. response equation utilizing non-linear regression analysis from GraphPad Prism 8.
smiles,measurement,value
COc1cc(OC)nc(SCc2nnc(SCC(=O)NO)n2-c2ccc(N(C)C)cc2)n1 [SR24717],concentration at which negative effects on viability were observed,100 µM
